# Source: US20250289786A1, “CHLORINATED MONOCARBONYL CURCUMIN COMPOUNDS, PREPARATION METHOD, AND APPLICATION” (Southwest Medical University, priority 2024, published 2025)
# Legend:
# PC12 cells [1] = assay: Inhibition of corticosterone (CORT)-induced PC12 cell damage; format: cell-based, rat; conditions: 24 h
# BV2 cells = assay: NO release in LPS-induced BV2 cell stress; format: cell-based; conditions: 1 μg/mL LPS; for NO release versus model group: 24 h, in words
# Excerpt: When the body is in a long-term stress and stress state, a large number of oxidizing substances and inflammatory factors accumulate in the body, causing depression and inducing depression-like symptoms. LPS is a pro-inflammatory substance, which can induce the increase of inflammatory factors, the accumulation of reactive oxygen species ROS and the release of NO in BV2 cells. The anti-inflammatory and antioxidant effects of drugs can be evaluated by establishing an LPS stress model.
# NO detection: When BV2 cells grew to the logarithmic growth phase, they were inoculated in a 6-well plate at 1×10^6 cells/well and cultured for 24 h. Then the original medium was replaced with CAK06 fresh DMEM high glucose medium containing high (10 μM), medium (5 μM), and low (1 μM) concentrations, and three duplicate wells were set up in each group. After the cells were treated with compound CAK06 for 12 h, the supernatant of the culture medium was centrifuged and stained according to the instructions of the NO detection kit, and the absorbance was detected at a wavelength of 540 nm.
# [2] = test system: CUMS depression model mice; assay: Forced swimming test in CUMS depression model mice; format: in vivo, C57BL/6J mice; conditions: for forced swimming test, depressive symptoms / immobility time: 14th day, in words; for immobility time in the forced swimming test: 28 days
# Excerpt: After one week of adaptive feeding, the newly purchased mice were divided into a blank group and CUMS model group. The mice in the blank group were not subjected to behavioral intervention and were fed normally. Mice in the model group were given 1-2 unpredictable behavioral stimuli every day. […] When the same stimulation is continuous, the stimulation method is changed to ensure that the same stimulation is not continuous, and the model construction period is 42 days.
# PC12 cells [3] = assay: Inhibition of H2O2-induced oxidative damage in PC12 cells; format: cell-based, rat
# Protocol: After 24 hours of incubation in the incubator, the relative proliferation rates of the cells were calculated according to the method under Section 2.1.
smiles,measurement,setting,value
"COc1cc(/C=C2\CNC/C(=C\c3cc(Cl)c(O)c(OC)c3)C2=O)cc(Cl)c1O [CAK06, 3,5-bis ((E)-3-chloro-4-hydroxy-5-methoxybenzylidene) piperidin-4-one]",relative cell proliferation rate,PC12 cells [1]; 60 μM drug with 514.6 μM CORT,66.95±0.97%
same,effect on viability of CORT-damaged PC12 cells,"PC12 cells [1]; 3.75-60 μM drug with 514.6 μM CORT, in words",time-dependent and concentration-dependent cell protection
same,absorbance (NO release),"BV2 cells; 1 μM (low), 12 h, 540 nm, model 0.153, blank 0.080",0.145
same,NO release versus model group,BV2 cells; 1 μM (low),no significant difference
same,NO release versus model group,BV2 cells; 5 μM (medium),significantly improved
same,NO release versus model group,BV2 cells; 10 μM (high),significantly improved
same,"forced swimming test, depressive symptoms / immobility time",[2]; 10 mg/kg oral once a day,significant reduction in immobility time
same,immobility time in the forced swimming test,[2]; 10 mg/kg oral once a day,114.86 ± 84.07 s
same,"forced swimming test, depressive symptoms / immobility time",[2]; 20 mg/kg oral once a day,stronger antidepressant effect
same,immobility time in the forced swimming test,[2]; 20 mg/kg oral once a day,54.44 ± 53.38 s
same,cell proliferation rate,"PC12 cells [3]; 60 μM drug with 585.8 μM H2O2, 24 h",73.91±0.69%
same,effect on survival of H2O2-damaged PC12 cells,"PC12 cells [3]; 3.75-60 μM drug, 24 h, in words",time-dependent and concentration-dependent cell protection
